Experimental data reported in US8481522B2, “Platinum-N-heterocyclic carbene derivatives, preparation thereof and therapeutic use thereof” (Sanofi, priority 2008, dated 2013).
“And” between values parts separate entries of the source, which are not always exact repeats. Equal values may be shown once.

Key:
[1] = test system: CCRF-CEM cells; experiment: Cytotoxicity, non-adherent CCRF-CEM cells, CellTiter-Glo luminescent cell viability; assay type: cell-based; settings: CCRF-CEM human T leukaemia, 96 h incubation
Procedure: CCRF-CEM is a human T leukaemia (Cancer 1965, 18: 522-529). Oxaliplatin induces bifunctional lesions such as inter- and intra-DNA strand adducts on these CCRF-CEM cells (Mol Pharmacol 2000, 58: 920-927). […] This deficiency makes these cells particularly […] to alkylating agents and to platinum compounds.
For the non-adherent CCRF-CEM cells, the cell viability is measured by the luminescence test CellTiter-Glo® Luminescent Cell Viability Assay (Promega, Madison, Wis., USA). When it is added to the cells, the reagent produces a luminescence in the presence of the ATP of the living cells. The results are evaluated on a suitable reader (Envision, Perkin-Elmer Life Sciences, Boston, Mass., USA).
The CCRF-CEM cells are cultured in RPMI1640 medium containing 10% foetal calf serum, 2 mM L-glutamine, 100 units/ml of penicillin and […] of streptomycin, at 37° C. in a 95% air/5% CO2 atmosphere. The cells, at the exponential growth phase, are introduced into the wells of a 96-well plate at the density of 5×10^3 cells per well in an opaque plate (Greiner), in a volume of 150 μl. After incubating for 4 h at 37° C. in a 95% air/5% CO2 atmosphere, the compounds (concentrated 20-fold) are added in a volume of 8 μl. The compounds are prepared beforehand as a stock solution at the concentration of 10 mM in DMSO. A serial dilution is performed before the compounds are brought into contact with the cells. After incubating for 96 h at 37° C., 100 μl of agents (CellTiter-Glo) are added. After lysing the cells, the release of ATP is evaluated on the Envision reader.
(§1) The IC50 values are evaluated from curves presenting the percentage viability as a function of the concentration of the test compound, using the Biostat speed software. The IC50 is defined as the concentration of the compound which inhibits 50% of the cell proliferation or 50% of the cell viability.

[2] = test system: H460; experiment: Cytotoxicity, adherent cells, 14C-thymidine incorporation (cell proliferation); assay type: cell-based; settings: NCI-H460 human non-small cell lung cancer, 96 h treatment
Procedure: NCI-H460 is a human non-small cell lung cancer which has a mutation in the K-ras gene. This cell is sensitive to platinum compounds. In this cell line, cisplatin forms more adducts than oxaliplatin at the same concentration and yet the percentage repair is higher for oxaliplatin (DNA Repair 2006, 5: 219-225).
Cell proliferation is evaluated by the incorporation of ^14C-thymidine into the DNA of the cells. A549, CH1, CH1/DDP and H460 are cultured in Dulbecco's modified Eagle's medium (DMEM), SK-OV-3 in Mc-Coy medium, A2780 and A2780/DDP in RPMI1640 medium. All the media contain 10% foetal calf serum, 2 mM L-glutamine, 100 units/ml of penicillin and […] of streptomycin. The incubation is performed at 37° C. in a 95% air/5% CO2 atmosphere.
The cells, at the exponential growth phase, are introduced into the wells of a Cytostar 96-well plate, containing a scintillation fluid (Cytostar-T scintillating microplate, GE Healthcare Bio-Sciences AB, Uppsala, Sweden), at the density of 5×10^3 to 10^4 cells per well, in an amount of 180 μl per well. After incubating for 4 hours, the test compounds are added. The compounds are prepared beforehand as a stock solution at the concentration of 10 mM in DMSO. A serial dilution is performed before the compounds are brought into contact with the cells in a volume of 10 μl. After incubating for 72 hours at 37° C. in an atmosphere of 95% air/5% CO2, 0.1 μCi/well of ^14C-thymidine is added. 24 h later (total 96 h of treatment), the incorporation of ^14C-thymidine is recorded on a suitable scintillation counter (MicroBeta radioactivity counting, Perkin-Elmer Life Sciences, Boston, Mass., USA). The mean values obtained in the experimental groups are divided by the mean values obtained in the control groups in order to obtain percentages relative to the controls.
as §1

In the case of Cn1ccn(C)[c]1=[Pt-]([I])([I])[NH2+]C1CC2CCC1C2 (racemic) [Example 6, trans-diiodo(N-exo(+/−)bicyclo[2.2.1]heptylamine)(1,3-dimethyl-imidazol-2-ylidene)platinum(II)], the IC50 [1] is reported as 1.7 µM and the IC50 [2] is reported as 2.8 µM.

For Cn1c(=O)c2c(n(C)c1=O)n(C)[c](=[Pt]([I])([I])[NH]C1CC3CCC1C3)n2C (racemic) [Example 25, trans-diiodo(N-exo(+/−)bicyclo[2.2.1]heptylamine) (1,3,7,9-tetramethylxanthin-8-ylidene)platinum(II)], the IC50 [1] was 1 µM and the IC50 [2] was 1.5 µM.

For Cn1ccn(C)[c]1=[Pt-]([I])([I])[NH2+]C1CC2CCC1C2 (single isomer, unassigned) [Example 23, trans-diiodo(N-exo(+)bicyclo[2.2.1]heptylamine)(1,3-dimethylimidazol-2-ylidene)platinum(II)], the IC50 [1] was 1.6 µM and the IC50 [2] was 2.3 µM.

Cn1ccn(C)[c]1=[Pt-]([I])([I])[NH2+]C1CC2CCC1C2 (single isomer, unassigned) [Example 24, trans-diiodo(N-exo(−)bicyclo[2.2.1]heptylamine)(1,3-dimethylimidazol-2-ylidene)platinum(II)] showed an IC50 [1] of 0.9 µM and an IC50 [2] of 2.1 µM.

Cn1ccn(C)[c]1=[Pt-]([I])([I])[NH2+]C1CCCCC1 [Example 1, trans-diiodo(N-cyclohexylamine)(1,3-dimethylimidazol-2-ylidene)platinum(II)] was tested, and the IC50 [1] was 2.8 µM and 1.9 µM and the IC50 [2] was 5.4 µM and 3 µM.

Cn1cnn(C)[c]1=[Pt]([I])([I])[NH]C1CCCCC1 [Example 2, trans-diiodo(N-cyclohexylamine)(1,4-dimethyl-1,2,4-triazol-5-ylidene)platinum(II)] was tested, and the IC50 [1] was 1.5 µM and the IC50 [2] was 2.5 µM.

Compound Cn1ccn(-c2ccccc2)[c]1=[Pt-]([I])([I])[NH2+]C1CCCCC1 [Example 4, trans-diiodo(N-cyclohexylamine)(1-methyl-3-phenylimidazol-2-ylidene)platinum(II)] has an IC50 [1] of 1.5 µM and an IC50 [2] of 2.3 µM.

In the case of Cn1[c](=[Pt]([I])([I])[NH]C2CCCCC2)n(C)c2ccccc21 [Example 8, trans-diiodo(N-cyclohexylamine)(1,3-dimethylbenzimidazol-2-ylidene)platinum(II)], the IC50 [1] is reported as 3.1 µM and the IC50 [2] is reported as 1.9 µM.

In the case of Cn1ccn(C)[c]1=[Pt-]([I])([I])[NH2+]Cc1ccccc1 [Example 13, trans-diiodo(N-benzylamine)(1,3-dimethylimidazol-2-ylidene)-platinum(II)], the IC50 [1] is reported as 1.7 µM and the IC50 [2] is reported as 3 µM.

Cn1ccn(C)[c]1=[Pt-]([I])([I])[NH2+]Cc1ccc(C(F)(F)F)cc1 [Example 14, trans-diiodo[N-4-(trifluoromethyl)benzylamine](1,3-dimethylimidazol-2-ylidene)platinum(II)] was tested, and the IC50 [1] was 1.7 µM and the IC50 [2] was 2.6 µM.

Work on C=Cn1ccn(C)[c]1=[Pt-]([I])([I])[NH2+]C1CCCCC1 [Example 15, trans-diiodo(N-cyclohexylamine)[1-methyl-3-vinylimidazol-2-ylidene]platinum(II)] yielded an IC50 [1] of 2.1 µM and an IC50 [2] of 3.8 µM.

Compound [I][Pt-]([I])([NH2+]C1CCCCC1)=[c]1n(C2CCCCC2)ccn1C1CCCCC1 [Example 18, trans-diiodo(N-cyclohexylamine)(1,3-dicyclohexylimidazol-2-ylidene)platinum(II)] has an IC50 [1] of 1.4 µM and an IC50 [2] of 2.7 µM.

With Cn1c(-c2ccccc2)c[n+](C)[c]1[Pt-2]([I])([I])[NH2+]C1CCCCC1 [Example 20, trans-diiodo(N-cyclohexylamine)[1,3-dimethyl-4-phenylimidazol-2-ylidene]platinum(II)] the IC50 [1] was 2.1 µM and the IC50 [2] was 4.4 µM.

Cn1c(-c2ccccc2)c(-c2ccccc2)n(C)[c]1=[Pt]([I])([I])[NH]C1CCCCC1 [Example 22, trans-diiodo(N-cyclohexylamine)[1,3-dimethyl-4,5-diphenylimidazol-2-ylidene]platinum(II)] gave an IC50 [1] of 1.2 µM and an IC50 [2] of 1.8 µM.

C[n+]1c(-c2ccccc2)c(-c2ccccc2)n(Cc2ccccc2)[c]1[Pt-2]([I])([I])[NH2+]C1CCCCC1 [Example 26, trans-diiodo(N-cyclohexylamine)[3-benzyl-4,5-diphenyl-1-methyl-imidazol-2-ylidene]platinum (II)] gave an IC50 [1] of 1.2 µM and an IC50 [2] of 2.9 µM.

In the case of CN1CCC([NH2+][Pt-]([I])([I])=[c]2n(C)ccn2Cc2ccccc2)CC1 [Example 27, trans-diiodo[N-(1-methylpiperidin-4-ylamine)](1-methyl-3-benzyl-imidazol-2-ylidene)platinum(II)], the IC50 [1] is reported as 1.6 µM and the IC50 [2] is reported as 1.7 µM.

In the case of CCC(CC)[NH2+][Pt-]([I])([I])=[c]1n(C)ccn1Cc1ccccc1 [Example 28, trans-diiodo(N-pentan-3-ylamine)(1-methyl-3-benzylimidazol-2-ylidene)platinum(II)], the IC50 [1] is reported as 1.4 µM and the IC50 [2] is reported as 1.6 µM.

For Cn1ccn(Cc2ccccc2)[c]1=[Pt-]([I])([I])[NH2+]C1CCOCC1 [Example 29, trans-diiodo(N-4-aminotetrahydropyran)(1-methyl-3-benzylimidazol-2-ylidene)platinum(II)], the IC50 [1] was 0.5 µM and the IC50 [2] was 0.9 µM.

With Cn1ccn(Cc2ccccc2)[c]1=[Pt-]([I])([I])[NH2+]C1CCCC1 [Example 30, trans-diiodo(N-cyclopentylamine)(1-methyl-3-benzylimidazol-2-ylidene)platinum(II)] the IC50 [1] was 1.1 µM and the IC50 [2] was 1.3 µM.

Compound Cn1ccn(Cc2ccccc2)[c]1=[Pt-]([I])([I])[NH+]1CCOCC1 [Example 31, trans-diiodo(N-morpholine)(1-methyl-3-benzylimidazol-2-ylidene)-platinum(II)] has an IC50 [1] of 0.7 µM and an IC50 [2] of 0.9 µM.

Work on COc1cccc(Cn2cc[n+](C)[c]2[Pt-2]([I])([I])[NH2+]C2CCCCC2)c1 [Example 32, trans-diiodo(N-cyclohexylamine)[3-(3-methoxybenzyl)-1-methyl-imidazol-2-ylidene]platinum(II)] yielded an IC50 [1] of 1.2 µM and an IC50 [2] of 1.4 µM.

Compound C[n+]1ccn(Cc2cccc(C(F)(F)F)c2)[c]1[Pt-2]([I])([I])[NH2+]C1CCCCC1 [Example 33, trans-diiodo(N-cyclohexylamine)[1-methyl-3-(3-trifluoromethylbenzyl)imidazol-2-ylidene]platinum(II)] has an IC50 [1] of 0.7 µM and an IC50 [2] of 0.8 µM.

Compound Cn1ccn(Cc2ccc(C(F)(F)F)cc2)[c]1=[Pt-]([NH2+]C1CCCCC1)([O][N+](=O)[O-])[O][N+](=O)[O-] [Example 34, trans-dinitrato(N-cyclohexylamine)[1-methyl-3-(4-trifluoromethyl-benzyl)imidazol-2-ylidene]platinum(II)] has an IC50 [1] of 1.4 µM and an IC50 [2] of 3.1 µM.

In the case of COc1ccc(Cn2cc[n+](C)[c]2[Pt-2]([I])([I])[NH2+]C2CCCCC2)cc1OC [Example 35, trans-diiodo(N-cyclohexylamine)[3-(3,4-dimethoxybenzyl)-1-methylimidazol-2-ylidene]platinum(II)], the IC50 [1] is reported as 1.3 µM and the IC50 [2] is reported as 2.7 µM.

With Cn1ccn(Cc2ccc(C(F)(F)F)cc2)[c]1=[Pt-]([I])([I])[NH+]1CCOCC1 [Example 36, trans-diiodo(N-morpholine)(1-methyl-3-(4-trifluoromethylbenzyl)-imidazol-2-ylidene)platinum(II)] the IC50 [1] was 0.6 µM and the IC50 [2] was 0.9 µM.

Cn1cc[n+](Cc2ccc(C(F)(F)F)cc2)[c]1[Pt-2]([I])([I])[NH2+]C1CCOCC1 [Example 37, trans-diiodo(N-tetrahydropyran-4-ylamine)(1-methyl-3-(4-trifluoro-methylbenzyl)imidazol-2-ylidene)platinum(II)] gave an IC50 [1] of 0.9 µM and an IC50 [2] of 1.4 µM.
